In patent publication US20140336220A1, “COMPOSITION FOR PREVENTING OR TREATING OBESITY COMPRISING REBAMIPIDE” (The Catholic University of Korea Industry-Academic …, priority 2011, published 2014):
“Also recorded” adds a separate entry of the source.

Experiments:
[1] = system: animal models induced with obesity; experiment: Weight reduction effect in mice induced with obesity using a high fat food; assay type: in vivo, C57BL/6(H-2kb) mouse; details: 300 mg/kg oral
Procedure: The inventors of the present disclosure prepared animal models induced with obesity in order to check whether rebamipide has an effect of treating obesity. As a test animal, a C57BL/6(H-2kb) mouse was used. In order to prepare animal models induced with obesity, a high fat food was fed to the animal models induced with obesity. After rebamipide was orally administered with a dose of 300 mg/kg to the animal models induced with obesity, weights of a rebamipide-treated group and a control group induced with obesity were measured.

[2] = system: Th17 cells and Treg cells in spleen; experiment: Th17 and Treg cells in spleen of obesity induced arthritis model, confocal microscope; assay type: in vivo, mouse; details: FIG. 15
Procedure: (§1) Further, in order to investigate whether or not rebamipide affects Th17 and Treg, the inventors of the present disclosure embedded a frozen section (optimal cutting temperature compound: O.C.T. compound) using the spleen of a mouse and rapidly cooled the tissue in liquid nitrogen and attached the tissue on a slide to a thickness of 7 μm using a cryo microtome. Then, the section was fixed with acetone and coated with 10% normal goat serum and blocked from a non-specific reaction for 30 minutes. Thereafter, the section was reacted at 4° C. overnight with primary antibodies, that is, FITC-labeled anti-mFoxp3 Ab, PElabeled anti-mCD4 Ab, and APC-labeled anti-CD25 Ab, diluted with PBS (pH 7.5) at a ratio of 1:100 for Treg analysis and reacted with FITC-labeled anti-mCD4 Ab, and PE-labeled anti-mIL-17 for Th17 cell analysis. On the next day, the section was washed with a PBS solution, and a stained tissue was analyzed with a confocal microscope.

[3] = system: animal model with collagen induced arthritis (CIA); experiment: Histological inspection of joints in collagen induced arthritis model; assay type: in vivo, mouse; details: 300 mg/kg oral, after 61 days, H&E, Toluidine blue, safranin O, FIG. 12
Procedure: Each animal model with collagen induced arthritis (CIA) was orally administered with rebamipide with a dose of 300 mg/kg. After 61 days, euthanasia was administered to the experimental animals. Then, hind legs of the mouse were fixed with 10% formalin, and compounds of calcium were removed from the bone and paraffin was coated. A section of the joint (7 μm) was prepared and stained with hematoxylin and eosin. Further, in order to check damage of cartilage, a histological inspection was carried out by staining with Toluidine blue and safranin O.

[4] = system: animal model with obesity induced arthritis; experiment: Arthritis index in obesity induced arthritis (collagen induced arthritis) model; assay type: in vivo, C57BL/6 mouse; details: 300 mg/kg oral, 10 times, three times per week, up to 61 days, FIG. 11
[5] = system: animal group induced with obesity; experiment: Brown fat to white fat ratio, interscapular region; assay type: in vivo, mouse; details: 30 mg/kg and 100 mg/kg, vs animal group induced with obesity, FIG. 10
Procedure: Thus, in order to check an effect of treatment with rebamipide on white fat and brown fat in vivo, the inventors of the present disclosure separated fat from an interscapular region of an animal group induced with obesity and a group treated with rebamipide with a dose of 30 mg/kg and 100 mg/kg and divided into white fat and brown fat. A weight of each of the white fat and the brown fat was measured, and an amount of the brown fat with respect to the white fat was calculated.

adipocyte = experiment: Real time PCR of adipogenic and brown fat genes in differentiated adipocyte; assay type: cell-based; details: FIG. 9
Procedure: The inventors of the present disclosure differentiated adipocyte by the method of Example <7-1>. 3 days after differentiation, differentiation of adipocyte was maintained with replacement with a culture medium added with dexamethasone and insulin once per two days, and after 4 days, the cells were treated with trizol and RNA was separated therefrom and cDNA was synthesized. Then, by real time PCR, mRNA expression of c/EBP, adiponectin, Leptin aP2, GLTU, and Cytochrome C1 as proadipogenic transcription factors was observed.

[6] = system: animal models induced with obesity; experiment: Serum glucose, triglyceride and cholesterol by autoanalyzer; assay type: in vivo, mouse; details: oral administration, obese mice, FIG. 3
Procedure: Further, an experimental animal group was etherized and blood was collected from the heart. The collected blood was put into a centrifuge tube and centrifuged at 3000 rpm for 20 minutes, so that the serum was separated and kept in a freezer until it was analyzed at −70° C. Contents of glucose, triglyceride, total cholesterol, HDL-cholesterol, and LDL-cholesterol in the serum were analyzed using an autoanalyzer (Kuadro, Italy).

[7] = system: Th17 cells and Treg cells in spleen; experiment: Th17 and Treg cells in spleen sections, confocal microscope; assay type: in vivo, mouse; details: obese mice treated with rebamipide, FIG. 5A, 5B
Text: as §1, with “In” for “Further, in”, “according to the present disclosure affected” for “affects”, “i.e.” for “that is,”

pre-adipocyte = experiment: Adipocyte differentiation of pre-adipocyte, Oil red O analysis; assay type: cell-based; details: vs untreated cells, dependent on dose of rebamipide, FIG. 8
Procedure: In order to check whether or not rebamipide has a […] inhibition effect, the inventors of the present disclosure divided pre-adipocyte in an amount of 1.2×10^4/2 ml into a 24-well plate, and when the cells were completely packed, the cells were cultured again for 48 hours. After 48 hours, differentiation of adipocyte was induced with replacement of a culture medium added with dexamethasone, insulin, and isobutylmethylxanthine. In this case, rebamipide was also used to stimulate while being dissolved in DMSO. 3 days after differentiation, differentiation of adipocyte was maintained with replacement with a culture medium added with dexamethasone and insulin once per two days. After 4 days, Oil red O analysis was carried out.

[8] = well treated with 20 μm of rebamipide

How did the “liver appearance with the naked eye” value ([1]; killed on the 51st day, FIG. 1B) turn out when O=C(NC(Cc1cc(=O)[nH]c2ccccc12)C(=O)O)c1ccc(Cl)cc1 (stereo not shown) [rebamipide, 2-(4-chlorobenzoylamino)-3-[2(1H)-quinolinon-4-yl]propionic acid] was run?
The value was “bright red like a liver of a normal mouse”.

And the weight ([1]; obese mice on high fat food, vs control group, FIG. 1A)?
Its weight is “statistically significantly decreased”.

What about the “Treg cells in spleen” value [2] of the same molecule?
Its value is “increased”.

And the “expression of Th17 in spleen” value [2]?
Its value is “reduced”.

And the “damage of the joint and cartilage (histology)” value [3]?
The value was “damage of the joint and cartilage was not severe and maintained similarly to a normal mouse”.

And the arthritis index [4]?
Its arthritis index is “decreased”.

What about the “ratio of the brown fat to the white fat” value [5] of the same molecule?
The value was “increased”.

What about the “mRNA expression of Cytochrome C1” value (adipocyte; differentiated adipocyte) of the same molecule?
Its value is “reduced depending on a concentration of rebamipide”.

And the “mRNA expression of GLTU” value (adipocyte; differentiated adipocyte)?
The value was “reduced depending on a concentration of rebamipide”.

And the “mRNA expression of Leptin” value (adipocyte; differentiated adipocyte)?
The value was “reduced depending on a concentration of rebamipide”.

What about the “mRNA expression of aP2” value (adipocyte; differentiated adipocyte) of the same molecule?
The value was “reduced depending on a concentration of rebamipide”.

What about the “mRNA expression of adiponectin” value (adipocyte; differentiated adipocyte) of the same molecule?
The value was “reduced depending on a concentration of rebamipide”.

And the “mRNA expression of c/EBP” value (adipocyte; differentiated adipocyte)?
Its value is “reduced depending on a concentration of rebamipide”.

What about the “level of brown fat gene Cidea” value (adipocyte; [8]) of the same molecule?
The value was “increased”.

What about the “level of brown fat gene Cox7a1” value (adipocyte; [8]) of the same molecule?
Its value is “increased”.

What about the “level of brown fat gene Elov13” value (adipocyte; [8]) of the same molecule?
Its value is “increased”.

What about the “level of brown fat gene Fgf21” value (adipocyte; [8]) of the same molecule?
The value was “increased”.

What about the HDL-cholesterol in serum [6] of the same molecule?
The HDL-cholesterol in serum was “slightly increased; also recorded: not statistically significant but increased”.

And the LDL-cholesterol in serum [6]?
The LDL-cholesterol in serum was “statistically significantly reduced; also recorded: statistically significantly decreased”.

And the glucose in serum [6]?
The glucose in serum was “statistically significantly reduced; also recorded: statistically significantly decreased”.

And the “total cholesterol in serum” value [6]?
The value was “statistically significantly reduced; also recorded: statistically significantly decreased”.

And the triglyceride in serum [6]?
Its triglyceride in serum is “statistically significantly reduced; also recorded: statistically significantly decreased”.

What about the “Treg cells in spleen” value [7] of the same molecule?
The value was “increased”.

What about the “expression of Th17 in spleen” value [7] of the same molecule?
Its value is “reduced”.

And the “differentiation of adipocyte (Oil red O)” value (pre-adipocyte)?
The value was “differentiation of adipocyte did not occur”.
